# Measured values reported in the supplement of paper PMC6045584.
# ± gives the standard deviation of the averaged measurements.
# How the values were obtained:
# EVEROLIMUS = compound: CO[C@H]1C[C@@H]2CC[C@@H](C)[C@@](O)(O2)C(=O)C(=O)N2CCCC[C@H]2C(=O)O[C@H]([C@H](C)C[C@@H]2CC[C@@H](OCCO)[C@H](OC)C2)CC(=O)[C@H](C)/C=C(\C)[C@@H](O)[C@@H](OC)C(=O)[C@H](C)C[C@H](C)/C=C/C=C/C=C/1C [EVEROLIMUS]; assay: surviving fraction relative to DMSO-only wells; higher = less growth inhibition; details: exposure time: 5 days
# In short: (§1)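 At 250–500 cells per well in 384-well plates, log-phase tumour cell lines were seeded and, 24 hours on, exposed continuously for five days to inhibitors at 0.5, 1, 5, 10, 50, 100, 500 and 1000 nM. Viability readout was CellTiter-Glo luminescence, reported as surviving fraction normalised to the median of DMSO-only wells.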
# [1] = compound: O=C(NOCC1CC1)c1ccc(F)c(F)c1Nc1ccc(I)cc1Cl; assay: as above; details: exposure time: 5 days
# In short: as §1
Test System,surviving fraction (EVEROLIMUS; 0.5 nM),surviving fraction (EVEROLIMUS; 1 nM),surviving fraction (EVEROLIMUS; 5 nM),surviving fraction (EVEROLIMUS; 10 nM),surviving fraction (EVEROLIMUS; 50 nM),surviving fraction (EVEROLIMUS; 100 nM),surviving fraction (EVEROLIMUS; 500 nM),surviving fraction (EVEROLIMUS; 1000 nM),surviving fraction ([1]; 0.5 nM),surviving fraction ([1]; 1 nM),surviving fraction ([1]; 5 nM),surviving fraction ([1]; 10 nM),surviving fraction ([1]; 50 nM),surviving fraction ([1]; 100 nM),surviving fraction ([1]; 500 nM),surviving fraction ([1]; 1000 nM)
CAL51 BREAST,0.684 ± 0.049,0.527 ± 0.046,0.406 ± 0.026,0.376 ± 0.0096,0.332 ± 0.029,0.283 ± 0.011,0.257 ± 0.039,0.26 ± 0.025,0.975 ± 0.021,1 ± 0.032,0.981 ± 0.055,0.993 ± 0.017,0.934 ± 0.058,0.944 ± 0.042,0.878 ± 0.032,0.8495 ± 0.0082
CAL120 BREAST,0.707 ± 0.073,0.602 ± 0.062,0.501 ± 0.028,0.486 ± 0.026,0.463 ± 0.007,0.45 ± 0.021,0.424 ± 0.021,0.412 ± 0.0054,0.928 ± 0.018,0.9302 ± 0.008,0.966 ± 0.025,0.908 ± 0.015,0.899 ± 0.036,0.898 ± 0.015,0.8322 ± 0.0043,0.805 ± 0.01
CASKI CERVIX,0.57 ± 0.035,0.506 ± 0.025,0.473 ± 0.018,0.402 ± 0.029,0.446 ± 0.021,0.389 ± 0.043,0.376 ± 0.0098,0.379 ± 0.014,0.931 ± 0.018,0.944 ± 0.038,0.95 ± 0.051,0.881 ± 0.032,0.766 ± 0.022,0.685 ± 0.045,0.474 ± 0.013,0.454 ± 0.02
CHLA90 AUTONOMIC GANGLIA,0.634 ± 0.051,0.512 ± 0.026,0.342 ± 0.021,0.343 ± 0.011,0.372 ± 0.066,0.404 ± 0.091,0.355 ± 0.067,0.344 ± 0.085,0.469 ± 0.022,0.987 ± 0.003,0.825 ± 0.05,0.894 ± 0.036,0.478 ± 0.044,0.763 ± 0.028,0.662 ± 0.044,0.69 ± 0.015
CME SYNOVIAL,1.2 ± 0.12,1.2 ± 0.2,1.29 ± 0.071,1.15 ± 0.16,0.885 ± 0.096,0.828 ± 0.066,0.66 ± 0.085,0.77 ± 0.1,0.301 ± 0.075,1.11 ± 0.064,1.04 ± 0.15,1.27 ± 0.12,0.584 ± 0.07,1.22 ± 0.17,0.993 ± 0.16,1.02 ± 0.27
COLO320DM LARGE INTESTINE,0.945 ± 0.056,0.983 ± 0.072,0.835 ± 0.081,0.843 ± 0.074,0.742 ± 0.017,0.779 ± 0.037,0.695 ± 0.047,0.652 ± 0.025,0.544 ± 0.018,1.09 ± 0.032,0.98 ± 0.094,1.09 ± 0.094,0.747 ± 0.053,1.15 ± 0.029,1.11 ± 0.063,1.15 ± 0.043
DU4475 BREAST,0.429 ± 0.1,0.272 ± 0.054,0.148 ± 0.0015,0.161 ± 0.03,0.108 ± 0.031,0.125 ± 0.03,0.103 ± 0.0061,0.0877 ± 0.012,0.859 ± 0.24,0.791 ± 0.12,0.794 ± 0.29,0.674 ± 0.064,0.49 ± 0.15,0.199 ± 0.11,0.0277 ± 0.0074,0.0263 ± 0.0078
H23 LUNG,0.811 ± 0.023,0.724 ± 0.011,0.567 ± 0.049,0.501 ± 0.039,0.488 ± 0.022,0.482 ± 0.034,0.405 ± 0.048,0.433 ± 0.03,0.922 ± 0.025,0.931 ± 0.027,0.834 ± 0.0027,0.741 ± 0.062,0.484 ± 0.029,0.413 ± 0.01,0.341 ± 0.0071,0.342 ± 0.0067
